Reference: patent US20250066369A1, “BICYCLIC PHTHALAZIN-1(2H)-ONE DERIVATIVES AND RELATED USES” (NodThera Limited, priority 2022, published 2025)
Counter-ions that a name gives are not always drawn.

test system: IL-1β release upon NLRP3 activation in peripheral blood mononuclear cells (PBMC); test: PBMC IC50 determination assay: inhibition of IL-1β release upon NLRP3 activation; assay type: cell-based; settings: PBMC primed with LPS 3 h, compound 30 min, stimulated with ATP (5 mM) or nigericin (10 μM) 1 h; IL-1β by ELISA (Protocol A) or HTRF (Protocol B)
Method in brief: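 Human PBMC from buffy coats were primed 3 h with LPS (1 μg/mL in Protocol B), given compound for 30 min, then stimulated 1 h with ATP (5 mM) or nigericin (10 μM; Protocol A only). Released IL-1β was quantified by ELISA at 450 nm (Protocol A) or HTRF at […] (Protocol B).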

`CC(C)c1nn(CC(=O)Nc2ncc(F)cn2)c(=O)c2cn(C3CC3)nc12` [Compound 17, 2-(2-Cyclopropyl-7-isopropyl-4-oxo-pyrazolo[3,4-d]pyridazin-5-yl)-N-(5-fluoropyrimidin-2-yl) acetamide] was tested, and the IC50 was 0.1 to 1 µM.

same assay, conditions: PBMC, PBMC primed with LPS 3 h, compound 30 min, stimulated with ATP (5 mM) or nigericin (10 μM) 1 h; IL-1β by ELISA (Protocol A) or HTRF (Protocol B)

First: CC(C)c1nn(CC(=O)N[C@@H]2CCCN(C3CC3)C2)c(=O)c2cnn(C)c12 [Compound 2, N-[(3R)-1-Cyclopropyl-3-piperidyl]-2-(7-isopropyl-1-methyl-4-oxo-pyrazolo[3,4-d]pyridazin-5-yl)acetamide]
Second: CC(C)c1nn(CC(=O)N[C@@H]2CCCN(C3CC3)C2)c(=O)c2nn(C)cc12 [Compound 9, N-[(3R)-1-Cyclopropyl-3-piperidyl]-2-(4-isopropyl-2-methyl-7-oxo-pyrazolo[3,4-d]pyridazin-6-yl)acetamide]
The IC50 of the first is lower: 1 to 3 µM for the first, 10 to 50 µM for the second. The first is the more potent here.

Compared with `CCc1nc2c(C(C)C)nn(CC(=O)Nc3ncc(F)cn3)c(=O)c2s1` [Compound 36], `CC(C)c1nn(CC(=O)Nc2ncc(F)cn2)c(=O)c2sc(Cl)nc12` [Compound 61] is higher in IC50: ≤ 0.1 µM for the first, 1 to 3 µM for the second.

Compared with `COCc1cc2c(C(C)C)nn(CC(=O)N[C@@H]3CCCN(C4CCC4)C3)c(=O)c2s1` [Compound 31, N-[(3R)-1-Cyclobutyl-3-piperidyl]-2-[4-isopropyl-2-(methoxymethyl)-7-oxo-thieno [2,3-d]pyridazin-6-yl]acetamide hydrochloride], `CC(C)c1nn(CC(=O)N[C@@H]2CCCN(C3CCC3)C2)c(=O)c2sc(C#N)cc12` [Compound 30, 2-(2-Cyano-4-isopropyl-7-oxo-thieno[2,3-d]pyridazin-6-yl)-N-[(3R)-1-cyclobutyl-3-piperidyl]acetamide] is higher in IC50: 1 to 3 µM for the first, 3 to 10 µM for the second. The first is the more potent here.

`CC(C)c1nn(CC(=O)Nc2ncc(F)cn2)c(=O)c2cc(Cl)sc12` [Compound 59, 2-(2-Chloro-7-isopropyl-4-oxothieno[2,3-d]pyridazin-5(4H)-yl)-N-(5-fluoropyrimidin-2-yl)acetamide] and `CCc1ccc2c(=O)n(CC(=O)Nc3ncc(F)cn3)nc(C(C)C)c2n1` [Compound 43] fall in the same range of IC50: 0.1 to 1 µM for the first, 0.1 to 1 µM for the second.

Compared with `CNc1cc2c(C(C)C)nn(C3(C(=O)Nc4ncccn4)CC3)c(=O)c2s1` [Compound 113, 1-[2-(Methylamino)-7-oxo-4-(propan-2-yl)-6H,7H-thieno[2,3-d]pyridazin-6-yl]-N-(pyrimidin-2-yl)cyclopropane-1-carboxamide], `CCNc1cc2c(C(C)C)nn(C3(C(=O)Nc4ncccn4)CC3)c(=O)c2s1` [Compound 110, 1-[2-(Ethylamino)-7-oxo-4-(propan-2-yl)-6H,7H-thieno[2,3-d]pyridazin-6-yl]-N-(pyrimidin-2-yl)cyclopropane-1-carboxamide] is lower in IC50: 10 to 50 µM for the first, 3 to 10 µM for the second. The second is the more potent here.

`CNc1cc2c(C(C)C)nn(CC(=O)Nc3ncccn3)c(=O)c2s1` [Compound 94, 2-[2-(Methylamino)-7-oxo-4-(propan-2-yl)-6H,7H-thieno[2,3-d]pyridazin-6-yl]-N-(pyrimidin-2-yl)acetamide] and `[2H]C([2H])([2H])Nc1cc2c(C(C)C)nn(CC(=O)Nc3ncccn3)c(=O)c2s1` [Compound 109, 2-{2-Trideuteromethylamino-7-oxo-4-(propan-2-yl)-6H,7H-thieno[2,3-d]pyridazin-6-yl}-N-(pyrimidin-2-yl)acetamide] cannot be ordered by IC50: ≤ 0.1 µM for the first, ≤ 0.1 µM for the second.

Compared with `CNc1cc2c(=O)n(CC(=O)Nc3ncccn3)nc(C(C)C)c2o1` [Compound 111, 2-[2-(Methylamino)-4-oxo-7-(propan-2-yl)-4H,5H-furo[2,3-d]pyridazin-5-yl]-N-(pyrimidin-2-yl)acetamide], `CC(C)c1nn(CC(=O)Nc2ncccn2)c(=O)c2sc(CN)cc12` [Compound 120, 2-[2-(Aminomethyl)-7-oxo-4-(propan-2-yl)-6H,7H-thieno[2,3-d]pyridazin-6-yl]-N-(pyrimidin-2-yl)acetamide] is higher in IC50: 0.1 to 1 µM for the first, 10 to 50 µM for the second.

`CC(C)c1nn(C2(C(=O)Nc3ncc(F)cn3)CC2)c(=O)c2cn(C(C)C)nc12` [Compound 51, 1-(2,7-Diisopropyl-4-oxo-2,4-dihydro-5H-pyrazolo[3,4-d]pyridazin-5-yl)-N-(5-fluoropyrimidin-2-yl)cyclopropane-1-carboxamide] and `CC(C)c1nn(CC(=O)Nc2ncc(Cl)cn2)c(=O)c2cn(C(C)C)nc12` [Compound 67, N-(5-Chloropyrimidin-2-yl)-2-(2,7-diisopropyl-4-oxo-2,4-dihydro-5H-pyrazolo[3,4-d]pyridazin-5-yl)acetamide] fall in the same range of IC50: 0.1 to 1 µM for the first, 0.1 to 1 µM for the second.

Compared with `CCn1cc2c(=O)n(CC(=O)Nc3ncccn3)nc(CF)c2n1` [Compound 40, 2-(2-Ethyl-7-(fluoromethyl)-4-oxo-2,4-dihydro-5H-pyrazolo[3,4-d]pyridazin-5-yl)-N-(pyrimidin-2-yl)acetamide], `CCc1nn(CC(=O)Nc2ncccn2)c(=O)c2cn(CC)nc12` [Compound 21, 2-(2,7-Diethyl-4-oxo-pyrazolo[3,4-d]pyridazin-5-yl)-N-pyrimidin-2-yl-acetamide] is higher in IC50: 1 to 3 µM for the first, 10 to 50 µM for the second. The first is the more potent here.

`CCc1cc2c(C(C)C)nn(CC(=O)N[C@H]3C[C@@](C)(O)C3)c(=O)c2s1` [Compound 69, 2-(2-Ethyl-4-isopropyl-7-oxothieno[2,3-d]pyridazin-6(7H)-yl)-N-((cis)-3-hydroxy-3-methylcyclobutyl)acetamide] and `CCCc1cc2c(C(C)C)nn(CC(=O)Nc3ncccn3)c(=O)c2s1` [Compound 99, 2-[7-Oxo-4-(propan-2-yl)-2-propyl-6H,7H-thieno[2,3-d]pyridazin-6-yl]-N-(pyrimidin-2-yl)acetamide] fall in the same range of IC50: 0.1 to 1 µM for the first, 0.1 to 1 µM for the second.

`CC(C)c1nn(CC(=O)Nc2ccc3nncn3n2)c(=O)c2cc(C3CC3)oc12` [Compound 105, 2-[2-Cyclopropyl-4-oxo-7-(propan-2-yl)-4H,5H-furo[2,3-d]pyridazin-5-yl]-N-{[1,2,4]triazolo[4,3-b]pyridazin-6-yl}acetamide] and `Cc1nn(CC(=O)Nc2ccc3nncn3n2)c(=O)c2cc(C3CC3)oc12` [Compound 106, 2-{2-Cyclopropyl-7-methyl-4-oxo-4H,5H-furo[2,3-d]pyridazin-5-yl}-N-{[1,2,4]triazolo[4,3-b]pyridazin-6-yl}acetamide] fall in the same range of IC50: 0.1 to 1 µM for the first, 0.1 to 1 µM for the second.

Compared with `Cc1nn(CC(=O)Nc2ncc(C#N)cn2)c(=O)c2cc(C3CC3)oc12` [Compound 91, N-(5-Cyanopyrimidin-2-yl)-2-{2-cyclopropyl-7-methyl-4-oxo-4H,5H-furo[2,3-d]pyridazin-5-yl}acetamide], `Cc1nn(CC(=O)Nc2ncco2)c(=O)c2cc(C3CC3)oc12` [Compound 87, 2-{2-cyclopropyl-7-methyl-4-oxo-4H,5H-furo[2,3-d]pyridazin-5-yl}-N-(1,3-oxazol-2-yl)acetamide] is higher in IC50: 0.1 to 1 µM for the first, 1 to 3 µM for the second. The first is the more potent here.

`CCc1nn(CC(=O)Nc2ncccn2)c(=O)c2cc(C3CC3)oc12` [Compound 89, 2-{2-cyclopropyl-7-ethyl-4-oxo-4H,5H-furo[2,3-d]pyridazin-5-yl}-N-(pyrimidin-2-yl)acetamide] and `CC(C)c1nn(CC(=O)Nc2ncccn2)c(=O)c2ccc(C3CC3)nc12` [Compound 27, 2-(2-Cyclopropyl-8-isopropyl-5-oxo-pyrido [2,3-d]pyridazin-6-yl)-N-pyrimidin-2-yl-acetamide] fall in the same range of IC50: 0.1 to 1 µM for the first, 0.1 to 1 µM for the second.

Compared with `Cc1nn(CC(=O)N[C@H]2C[C@@](C)(O)C2)c(=O)c2cc(C3CC3)oc12` [Compound 85, 2-{2-Cyclopropyl-7-methyl-4-oxo-4H,5H-furo[2,3-d]pyridazin-5-yl}-N-[cis-3-hydroxy-3-methylcyclobutyl]acetamide], `CC(C)c1nn(CC(=O)Nc2ncco2)c(=O)c2cc(C3CC3)oc12` [Compound 79, 2-(2-Cyclopropyl-7-isopropyl-4-oxofuro[2,3-d]pyridazin-5(4H)-yl)-N-(oxazol-2-yl)acetamide] is lower in IC50: 1 to 3 µM for the first, 0.1 to 1 µM for the second.

`CC(C)c1nn(CC(=O)Nc2ncco2)c(=O)c2cn(C(C)C)nc12` [Compound 72, 2-(2,7-Diisopropyl-4-oxo-pyrazolo[3,4-d]pyridazin-5-yl)-N-oxazol-2-yl-acetamide] and `CCc1nn(CC(=O)Nc2ncco2)c(=O)c2sc(NC)cc12` [Compound 115, 2-[4-Ethyl-2-(methylamino)-7-oxo-6H,7H-thieno[2,3-d]pyridazin-6-yl]-N-(1,3-oxazol-2-yl)acetamide] fall in the same range of IC50: 0.1 to 1 µM for the first, 0.1 to 1 µM for the second.
